Reference: patent US20230295200A1 (REGENTS OF THE UNIVERSITY OF MICHIGAN, priority 2022, published 2023)

Biological target: T1, STAT6 protein (Homo sapiens, UniProt P42226)
T1 sequence (P42226 1-847): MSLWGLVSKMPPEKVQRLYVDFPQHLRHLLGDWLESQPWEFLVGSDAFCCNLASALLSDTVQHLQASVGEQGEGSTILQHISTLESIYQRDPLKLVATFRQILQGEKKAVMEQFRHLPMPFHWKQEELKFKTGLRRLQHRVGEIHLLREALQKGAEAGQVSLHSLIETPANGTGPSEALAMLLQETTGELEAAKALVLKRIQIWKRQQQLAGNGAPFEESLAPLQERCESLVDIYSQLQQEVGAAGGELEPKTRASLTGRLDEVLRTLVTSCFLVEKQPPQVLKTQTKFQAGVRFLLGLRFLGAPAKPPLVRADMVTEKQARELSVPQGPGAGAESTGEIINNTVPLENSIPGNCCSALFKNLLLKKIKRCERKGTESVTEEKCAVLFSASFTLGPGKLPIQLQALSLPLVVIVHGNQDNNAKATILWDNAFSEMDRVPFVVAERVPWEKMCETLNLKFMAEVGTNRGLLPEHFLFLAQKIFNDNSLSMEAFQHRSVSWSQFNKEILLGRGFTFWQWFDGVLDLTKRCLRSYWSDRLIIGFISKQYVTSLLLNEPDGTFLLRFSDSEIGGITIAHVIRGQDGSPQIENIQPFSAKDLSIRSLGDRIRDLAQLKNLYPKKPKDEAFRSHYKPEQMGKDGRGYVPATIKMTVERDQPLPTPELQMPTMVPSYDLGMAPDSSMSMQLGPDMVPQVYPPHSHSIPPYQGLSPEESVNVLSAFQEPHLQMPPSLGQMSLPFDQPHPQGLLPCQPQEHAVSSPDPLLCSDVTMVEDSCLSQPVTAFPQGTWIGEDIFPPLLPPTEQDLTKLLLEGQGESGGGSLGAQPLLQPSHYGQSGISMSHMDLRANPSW
Experiment: Fluorescence polarization (FP) binding assay, STAT6
Settings: FP competition, 5 nM fluorescein-labeled tracer, 200 nM protein, PBS pH7.4; read-out: Binding STAT6
How it was run: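 Polarization read after 1 h equilibration at room temperature (preceded by 15 min shaking) of 200 nM STAT5 and/or STAT6 with 5 nM fluorescein tracer. Buffer: PBS pH 7.4 plus 0.01% BGG, 0.01% Tween-20, 2 mM DTT; inhibition constants derived by nonlinear fitting.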

Compound | Ki [nM]
CC(C)(C)[C@H](NC(=O)c1cc2cc(C(F)(F)P(=O)(O)O)ccc2s1)C(=O)N1Cc2ccccc2C[C@H]1C(=O)N1CCCC(c2ccc(Cl)cc2)C1 (stereo partly drawn) [Compound 246, ((2-(((2S)-1-((3S)-3-(3-(4-chlorophenyl)piperidine-1-carbonyl)-3,4-dihydroisoquinolin-2(1H)-yl)-3,3-dimethyl-1-oxobutan-2-yl)carbamoyl)benzo[b]thiophen-5-yl)difluoromethyl)phosphonic acid] | 100 to 1000
CC(C)(C)[C@H](NC(=O)c1cc2cc(C(F)(F)P(=O)(O)O)ccc2s1)C(=O)N1CCC[C@H]1C(=O)N1CCOC(c2cc(F)cc(F)c2)C1 (stereo partly drawn) [Compound 265, ((2-(((2S)-1-((2S)-2-(2-(3,5-difluorophenyl)morpholine-4-carbonyl)pyrrolidin-1-yl)-3,3-dimethyl-1-oxobutan-2-yl)carbamoyl)benzo[b]thiophen-5-yl)difluoromethyl)phosphonic acid] | 100 to 1000
CC(C)(C)[C@H](NC(=O)c1cc2cc(C(F)(F)P(=O)(O)O)ccc2s1)C(=O)N1CCC[C@H]1C(=O)N1CC(C(=O)O)CC(c2ccccc2)C1 (stereo partly drawn) [Compound 266, 1-(((S)-2-(5-(difluoro(phosphono)methyl)benzo [b]thiophene-2-carboxamido)-3,3-dimethylbutanoyl)-L-prolyl)-5-phenylpiperidine-3-carboxylic acid] | 1000 to 10000
O=C(N[C@@H](Cc1ccncc1)C(=O)N1CCC[C@H]1C(=O)N1CCO[C@H](c2ccccc2)C1)c1cc2cc(C(F)(F)P(=O)(O)O)ccc2s1 [Compound 270, (difluoro(2-(((S)-1-oxo-1-((S)-2-((R)-2-phenylmorpholine-4-carbonyl)pyrrolidin-1-yl)-3-(pyridin-4-yl)propan-2-yl)carbamoyl)benzo[b]thiophen-5-yl)methyl)phosphonic acid] | 100 to 1000
O=C(N[C@@H](Cc1cccnc1)C(=O)N1CCC[C@H]1C(=O)N1CCO[C@H](c2ccccc2)C1)c1cc2cc(C(F)(F)P(=O)(O)O)ccc2s1 [Compound 271, (difluoro(2-(((S)-1-oxo-1-((S)-2-((R)-2-phenylmorpholine-4-carbonyl)pyrrolidin-1-yl)-3-(pyridin-3-yl)propan-2-yl)carbamoyl)benzo[b]thiophen-5-yl)methyl)phosphonic acid] | 100 to 1000
CCCC[C@H](NC(=O)c1cc2cc(C(F)(F)P(=O)(O)O)ccc2s1)C(=O)N1CCC[C@H]1C(=O)N1CCO[C@H](c2ccccc2)C1 [Compound 272, (difluoro(2-(((S)-1-oxo-1-((S)-2-((R)-2-phenylmorpholine-4-carbonyl)pyrrolidin-1-yl)hexan-2-yl)carbamoyl)benzo[b]thiophen-5-yl)methyl)phosphonic acid] | 100 to 1000
CN(C)CCC[C@H](NC(=O)c1cc2cc(C(F)(F)P(=O)(O)O)ccc2s1)C(=O)N1CCC[C@H]1C(=O)N1CCO[C@H](c2ccccc2)C1 [Compound 274, ((2-(((S)-5-(dimethylamino)-1-oxo-1-((S)-2-((R)-2-phenylmorpholine-4-carbonyl)pyrrolidin-1-yl)pentan-2-yl)carbamoyl)benzo[b]thiophen-5-yl)difluoromethyl)phosphonic acid] | 100 to 1000
NC(=O)CC[C@H](NC(=O)c1cc2cc(C(F)(F)P(=O)(O)O)ccc2s1)C(=O)N1CCC[C@H]1C(=O)N1CCO[C@H](c2ccccc2)C1 [Compound 276, ((2-(((S)-5-amino-1,5-dioxo-1-((S)-2-((R)-2-phenylmorpholine-4-carbonyl)pyrrolidin-1-yl)pentan-2-yl)carbamoyl)benzo[b]thiophen-5-yl)difluoromethyl)phosphonic acid] | 100 to 1000
CC(C)(C)c1ccc(C[C@H](NC(=O)c2cc3cc(C(F)(F)P(=O)(O)O)ccc3s2)C(=O)N2CCC[C@H]2C(=O)N2CCO[C@H](c3ccccc3)C2)cc1 [Compound 277, ((2-(((S)-3-(4-(tert-butyl)phenyl)-1-oxo-1-((S)-2-((R)-2-phenylmorpholine-4-carbonyl)pyrrolidin-1-yl)propan-2-yl)carbamoyl)benzo[b]thiophen-5-yl)difluoromethyl)phosphonic acid] | < 100
O=C(N[C@@H](Cc1ccc(F)c(F)c1)C(=O)N1CCC[C@H]1C(=O)N1CCO[C@H](c2ccccc2)C1)c1cc2cc(C(F)(F)P(=O)(O)O)ccc2s1 [Compound 278, ((2-(((S)-3-(3,4-difluorophenyl)-1-oxo-1-((S)-2-((R)-2-phenylmorpholine-4-carbonyl)pyrrolidin-1-yl)propan-2-yl)carbamoyl)benzo[b]thiophen-5-yl)difluoromethyl)phosphonic acid] | 100 to 1000
NCCC[C@H](NC(=O)c1cc2cc(C(F)(F)P(=O)(O)O)ccc2s1)C(=O)N1CCC[C@H]1C(=O)N1CCO[C@H](c2ccccc2)C1 [Compound 280, ((2-(((S)-5-amino-1-oxo-1-((S)-2-((R)-2-phenylmorpholine-4-carbonyl)pyrrolidin-1-yl)pentan-2-yl)carbamoyl)benzo[b]thiophen-5-yl)difluoromethyl)phosphonic acid] | < 100
Cc1cccc(C[C@H](NC(=O)c2cc3cc(C(F)(F)P(=O)(O)O)ccc3s2)C(=O)N2CCC[C@H]2C(=O)N2CCO[C@H](c3ccccc3)C2)c1 [Compound 283, (difluoro(2-(((S)-1-oxo-1-((S)-2-((R)-2-phenylmorpholine-4-carbonyl)pyrrolidin-1-yl)-3-(m-tolyl)propan-2-yl)carbamoyl)benzo[b]thiophen-5-yl)methyl)phosphonic acid] | 100 to 1000

The next lines start with the values.

Ki [nM] | Compound
100 to 1000 | CC(C)(C)[C@H](NC(=O)c1cc2cc(C(F)(F)P(=O)(O)O)ccc2s1)C(=O)N1Cc2ccccc2C[C@H]1C(=O)N1CCCC(c2cccc(F)c2)C1 (stereo partly drawn) [Compound 245, (difluoro(2-(((2S)-1-((3S)-3-(3-(3-fluorophenyl)piperidine-1-carbonyl)-3,4-dihydroisoquinolin-2(1H)-yl)-3,3-dimethyl-1-oxobutan-2-yl)carbamoyl)benzo[b]thiophen-5-yl)methyl)phosphonic acid]
100 to 1000 | O=C(N[C@H](C(=O)N1CCC[C@H]1C(=O)N1CCO[C@H](c2ccccc2)C1)C1CCNCC1)c1cc2cc(C(F)(F)P(=O)(O)O)ccc2s1 [Compound 269, (difluoro(2-(((S)-2-oxo-2-((S)-2-((R)-2-phenylmorpholine-4-carbonyl)pyrrolidin-1-yl)-1-(piperidin-4-yl)ethyl)carbamoyl)benzo[b]thiophen-5-yl)methyl)phosphonic acid]
100 to 1000 | O=C(N[C@@H](Cc1ccc(Br)cc1)C(=O)N1CCC[C@H]1C(=O)N1CCO[C@H](c2ccccc2)C1)c1cc2cc(C(F)(F)P(=O)(O)O)ccc2s1 [Compound 273, ((2-(((S)-3-(4-bromophenyl)-1-oxo-1-((S)-2-((R)-2-phenylmorpholine-4-carbonyl)pyrrolidin-1-yl)propan-2-yl)carbamoyl)benzo[b]thiophen-5-yl)difluoromethyl)phosphonic acid]
100 to 1000 | CN(C)CC[C@H](NC(=O)c1cc2cc(C(F)(F)P(=O)(O)O)ccc2s1)C(=O)N1CCC[C@H]1C(=O)N1CCO[C@H](c2ccccc2)C1 [Compound 275, ((2-(((S)-4-(dimethylamino)-1-oxo-1-((S)-2-((R)-2-phenylmorpholine-4-carbonyl)pyrrolidin-1-yl)butan-2-yl)carbamoyl)benzo[b]thiophen-5-yl)difluoromethyl)phosphonic acid]
100 to 1000 | O=C(N[C@H](C(=O)N1CCC[C@H]1C(=O)N1CCO[C@H](c2ccccc2)C1)C1CCCCC1)c1cc2cc(C(F)(F)P(=O)(O)O)ccc2s1 [Compound 279, ((2-(((S)-1-cyclohexyl-2-oxo-2-((S)-2-((R)-2-phenylmorpholine-4-carbonyl)pyrrolidin-1-yl)ethyl)carbamoyl)benzo[b]thiophen-5-yl)difluoromethyl)phosphonic acid]
< 100 | N#Cc1cccc(C[C@H](NC(=O)c2cc3cc(C(F)(F)P(=O)(O)O)ccc3s2)C(=O)N2CCC[C@H]2C(=O)N2CCO[C@H](c3ccccc3)C2)c1 [Compound 281, ((2-(((S)-3-(3-cyanophenyl)-1-oxo-1-((S)-2-((R)-2-phenylmorpholine-4-carbonyl)pyrrolidin-1-yl)propan-2-yl)carbamoyl)benzo[b]thiophen-5-yl)difluoromethyl)phosphonic acid]
< 100 | O=C(N[C@@H](Cc1cccc([N+](=O)[O-])c1)C(=O)N1CCC[C@H]1C(=O)N1CCO[C@H](c2ccccc2)C1)c1cc2cc(C(F)(F)P(=O)(O)O)ccc2s1 [Compound 282, (difluoro(2-(((S)-3-(3-nitrophenyl)-1-oxo-1-((S)-2-((R)-2-phenylmorpholine-4-carbonyl)pyrrolidin-1-yl)propan-2-yl)carbamoyl)benzo[b]thiophen-5-yl)methyl)phosphonic acid]
